Values of other authors, collected in patent publication US11865103B2, “Methods of treating disorders associated with glycosylation defective proteins” (CASE WESTERN RESERVE UNIVERSITY, priority 2016, dated 2024).

Tested on: TgAC1; Clrn1^N48K/N48K mouse model
Conditions: cited from earlier work

## CC(C)(O)Cn1nc(-c2ccccc2)c2c(Cl)c(-c3ccccc3)nnc21 [BF844]
  Effect on hearing loss: mitigate hearing loss
